Patent publication US5932551A, “Substituted N-carboxyalkylpeptidyl derivatives as antidegenerative active agents” (Merck & Co., Inc., priority 1997, dated 1999)

Legend:
Assay type in all cases: biochemical
collagenase = molecular target: T1, collagenase (Homo sapiens, UniProt P03956); assay: Inhibition of collagenase cleavage of thioester peptide Ac-Pro-Leu-Gly-S-Leu-Leu-Gly-OC2H5; conditions: read-out: Inhibition of Collagenase pH = 6.5 (IC50)
T1 sequence (P03956 100-469): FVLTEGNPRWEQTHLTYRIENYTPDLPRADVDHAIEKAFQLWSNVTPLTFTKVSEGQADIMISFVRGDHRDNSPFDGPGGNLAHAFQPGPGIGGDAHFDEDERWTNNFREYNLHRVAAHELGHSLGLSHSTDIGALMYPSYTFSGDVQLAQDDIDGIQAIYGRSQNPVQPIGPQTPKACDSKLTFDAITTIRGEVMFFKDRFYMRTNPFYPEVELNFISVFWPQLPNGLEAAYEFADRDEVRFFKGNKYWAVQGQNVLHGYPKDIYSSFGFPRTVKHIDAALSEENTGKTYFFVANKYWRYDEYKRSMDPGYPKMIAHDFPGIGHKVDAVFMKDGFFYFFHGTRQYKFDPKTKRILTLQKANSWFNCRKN
Description: (§1) The peptide portion is herein designated SEQ ID No: 2:.

[1] = molecular target: T2, 72 kD Galatinase (gelatinase) (Homo sapiens, UniProt P08253); assay: Inhibition of gelatinase-mediated cleavage of fluorogenic substrate Dnp-Pro-Leu-Gly-Leu-Trp-Ala-D-ArgNH2; conditions: pH = 7.5
T2 sequence (P08253 110-660): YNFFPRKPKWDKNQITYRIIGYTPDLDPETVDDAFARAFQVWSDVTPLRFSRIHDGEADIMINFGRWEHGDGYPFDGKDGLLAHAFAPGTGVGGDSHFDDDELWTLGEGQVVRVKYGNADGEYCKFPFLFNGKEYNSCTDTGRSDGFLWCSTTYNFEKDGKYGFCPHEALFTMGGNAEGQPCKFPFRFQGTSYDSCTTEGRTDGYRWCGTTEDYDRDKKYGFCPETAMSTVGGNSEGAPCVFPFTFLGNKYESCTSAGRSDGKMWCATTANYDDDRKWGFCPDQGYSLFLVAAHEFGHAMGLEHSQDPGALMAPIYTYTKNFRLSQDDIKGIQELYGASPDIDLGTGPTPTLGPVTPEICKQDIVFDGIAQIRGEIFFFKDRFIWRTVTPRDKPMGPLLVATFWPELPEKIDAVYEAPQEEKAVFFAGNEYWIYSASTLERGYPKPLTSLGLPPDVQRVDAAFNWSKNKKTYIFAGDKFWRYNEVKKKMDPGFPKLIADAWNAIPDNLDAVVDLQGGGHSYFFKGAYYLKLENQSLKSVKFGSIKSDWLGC
Description: as §1

stromelysin = stromelysin (Homo sapiens, UniProt P08254); assay: Inhibition of stromelysin-mediated hydrolysis of substance P (HPLC-based assay); conditions: pH = 7.5
stromelysin, sequence (P08254 100-477): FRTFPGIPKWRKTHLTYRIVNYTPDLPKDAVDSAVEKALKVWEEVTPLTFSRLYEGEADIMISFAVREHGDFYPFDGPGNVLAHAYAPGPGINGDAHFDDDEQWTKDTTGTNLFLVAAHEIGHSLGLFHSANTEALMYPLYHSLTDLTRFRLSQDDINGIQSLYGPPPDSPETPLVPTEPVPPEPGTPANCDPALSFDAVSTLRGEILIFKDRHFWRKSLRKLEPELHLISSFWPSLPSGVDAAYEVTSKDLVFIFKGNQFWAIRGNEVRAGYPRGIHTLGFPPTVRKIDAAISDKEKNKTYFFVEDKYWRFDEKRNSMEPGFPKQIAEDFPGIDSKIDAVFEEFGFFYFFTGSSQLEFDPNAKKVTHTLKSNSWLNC

CC(C)C[C@H](NC(=O)[C@H](CCc1ccccc1)N[C@H](C)C(=O)O)C(=O)Nc1ccccc1 [5a, N-[1(R)-Carboxy-ethyl]-α-(S)-(2-phenyl-ethyl)glycine-(L)-leucine, N-phenylamide]
IC50 (collagenase): 60 nM | Ki [1]: 930 nM

CC(C)C[C@H](NC(=O)[C@H](CCc1ccccc1)N[C@H](CCCCN1C(=O)c2ccccc2C1=O)C(=O)O)C(=O)Nc1ccccc1 [5d]
IC50 (stromelysin): 200 nM | IC50 (collagenase): 250 nM | Ki [1]: 86 nM
